Source: patent US8304418B2, “Pyrazolopyrimidinone kinase inhibitor” (Agennix AG, priority 2007, dated 2012)
Values after ≈ are worked out from the molar mass of the structure shown. Values joined by “and” are separate entries in the source; they are usually repeats but may differ in a detail not shown here. Equal values may be shown once. Read-outs that look alike come from different tables or passages of the source.

Experiments:
H460 NSCLC = conditions: H460; for Max % TGI (d): day 13
[1] = tested on: CDK1-dependent Eg-5 phosphorylation on threonine 927; assay: In-cell Eg-5 phosphorylation (immunoblot); format: cell-based, human; conditions: Homo sapiens, 1 h
Source text: This set of assays represents CDKs involved in cell cycle progression (CDK1, 4/6), and the “regulatory CDK” (CDK9) which is involved in transcriptional regulation.
(§1) The following cancer cell lines were investigated in the course of these studies: A2780 (ovarian), HCT116 (colon), RPMI8226 (myeloma), SKMel28 (melanoma), Colo205 (colorectal), MDA-MB-435 (melanoma), MDA-MB-453 (breast, carcinoma), MDA-MB-468 (breast, adenocarcinoma), A549 (lung), Raji (lymphoma, Burkitt). Cell lines were obtained from public repositories.
CDK1-dependent Eg-5 phosphorylation on threonine 927 (Thr927phos). Thr927phos was investigated by arresting cells over night in G2/M phase with 25 ng/ml nocodazole (optimized final concentration) followed by treatment with DMSO as control or an appropriate concentration of test compound for 1 hour. Detached as well as adherent cells were collected and lysed with CLB-1 lysis buffer. the lysate cleared by centrifugation and subjected to SDS-PAGE. The proteins were blotted on PVDF membranes and subsequently analyzed by antibodies against total Eg-5 (Becton Dickinson) and Eg-5 Thr927phos (Bio legend). Visualization and estimation of IC50 was conducted as above.

Colo205 = assay: Cell proliferation, Colo205; format: cell-based; conditions: Homo sapiens, COLO 205
Description: (§2) The assays used for determining the properties of the kinase inhibitors were performed in accordance with standard procedures well known to those skilled in the art. For example, assays for determining inhibitory activity on CDKs or in cellular assays are described in WO 00/218962, WO 2005/026129, and WO 2005/063765. Solubility assays at pH 7.4 were essentially performed as described by Avdeef, A. in Pharmacokinetic Optimization in Drug Research; Testa, B.; van de Waterbeemd, H.; Folkers, G.; Guy, R. Eds.; Wiley-VHC: Zurich, 2001; pp 305-326. PAMPA permeability assays at pH 7.4 were essentially performed as described in Kansy et al., J. Med. Chem. 41: 1007-10, 1998.
When compared to IC50s of cellular proliferation by compound I, (as determined by the methods described earlier), the corresponding IC50 for cellular inhibition of CDK9-dependent RNAPII phosphorylation is approximately similar.

[2] = tested on: HCT116 colon carcinoma cells
Description: (§3) Xenograft Tumor-Models: 100 athymic nu/nu female mice (6-8 weeks old) from CRL were allowed to acclimate for 4 days. […] The 3rd passage of cells with approximate 90% confluence was used for these experiments. Briefly, on Day 0, mice were inoculated with 0.1 ml (total 5×10^6 cells) of the respective cell-type as a cell suspension (50×10^6 cells/ml) by subcutaneous injection into the fat pad area near the mammary gland under light anesthesia. When the average tumor weight in all mice reached over 100 mg (day 10), 80 animals with an average tumor size of 130 mg were selected and were randomly divided into 8 groups.
(§4) A 20 G gavage needle was used for the oral treatment.
(§5) Tumor growth and body weight were monitored and recorded three times a week. Tumors were measured by determining the length and width of the tumor with a digital caliper. Tumor weight was estimated using the following formula: Tumor Weight (mg)=(w^2×1)×0.52 where w=width and l=length in mm of the tumor.
(§6) Experimental treatment may cause partial regression (PR) or complete regression (CR) of tumors. PR is defined when the tumor size is 50% or less than the starting (day 1) size but greater than 0.0 mg for three consecutive measurements during the course of the study. CR occurs when there is no measurable tumor mass for three consecutive measurements. Cures are defined when CR are maintained until the completion of the experiment.
(§7) Mice were sacrificed when their tumors reached the 1000 mm^3 endpoint volume. Treatment efficacy was determined as Log Cell Kill (LCK).
(§8) Toxic deaths are defined as deaths caused by compound treatment and not by advanced disease state. […] Non-tumor related deaths after this point are recorded, but not considered toxic deaths.
(§9) Briefly, the empirical distributions of T and Td were derived from B=1000 realisations of random selection of n individual animals with replacement from the set i=1, . . . , n of the appropriate group of mice containing n evaluable animals, estimating the mean tumor size for such selection of animals for each time-point, and linear regression analysis from a semi-log plot of such averages against time. Dead mice and mice with no measurable tumor size were treated as missing data and were ignored when calculating the average.

[3] = tested on: CDK9-specific phosphorylation of RNA polymerase II (RNAPII) on serine 2; assay: In-cell RNAPII phosphorylation (immunoblot); format: cell-based, human; conditions: Homo sapiens, 3 h
Description: as §1
CDK9-specific phosphorylation of RNA polymerase II (RNAPII) on Serine 2 (Ser2). Asynchronous cells were treated with an appropriate concentration of test compound or DMSO as a control. After 3 h incubation (37° C./5% CO2) cells were lysed with CLB-1 lysis buffer (Zeptosense, Switzerland), the lysate was cleared by centrifugation (10 min, 13000 rpm, RT) and subjected to SDS-PAGE. Total protein was blotted on PVDF membranes and analyzed using antibodies against S2-phosphorylated RNAPII (H5; Covance) or total RNAPII (N-20; Santa Cruz) as an expression control. Visualization was conducted using secondary Alexa680- or IR800-coupled antibodies (Molecular Probes) against mouse or rabbit Fc tails on the Odyssey-system (Licor). Specific bands were quantified and IC50 values of inhibition of RNAPII phosphorylation were estimated.

[4] = Solubility assay at pH 7.4; format: physicochemical; conditions: pH 7.4, aqueous buffer
Description: as §2

[5] = PAMPA permeability assay at pH 7.4; format: in vitro ADME
Description: as §2

CDK6 = CDK6 (Homo sapiens, UniProt Q00534); assay: Biochemical CDK6 inhibition assay
Sequence of CDK6 (Q00534 whole entry): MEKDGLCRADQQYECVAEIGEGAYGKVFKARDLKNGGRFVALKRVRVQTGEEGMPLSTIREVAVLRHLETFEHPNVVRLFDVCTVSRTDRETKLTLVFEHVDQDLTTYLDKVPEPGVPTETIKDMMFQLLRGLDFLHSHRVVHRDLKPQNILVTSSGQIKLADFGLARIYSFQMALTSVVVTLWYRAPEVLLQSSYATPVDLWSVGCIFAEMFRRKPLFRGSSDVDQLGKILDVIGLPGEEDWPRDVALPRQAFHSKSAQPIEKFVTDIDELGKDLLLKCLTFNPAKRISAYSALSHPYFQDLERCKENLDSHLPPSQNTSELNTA
Sequence of CDK6 (P30281 whole entry partner): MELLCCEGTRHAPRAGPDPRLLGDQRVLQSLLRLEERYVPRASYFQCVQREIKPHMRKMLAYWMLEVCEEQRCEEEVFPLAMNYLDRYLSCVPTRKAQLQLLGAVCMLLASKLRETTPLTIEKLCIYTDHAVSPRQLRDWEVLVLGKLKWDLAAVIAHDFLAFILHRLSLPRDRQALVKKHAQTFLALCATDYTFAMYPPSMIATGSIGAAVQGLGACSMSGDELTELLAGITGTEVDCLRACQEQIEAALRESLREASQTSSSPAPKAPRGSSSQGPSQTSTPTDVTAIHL
Description: as §2

[6] = tested on: human A2780 ovarian tumor cells
Description: as §3, §4, §5, §6, §7, §8, §9

CDK1 = CDK1 (Homo sapiens, UniProt P06493); assay: Biochemical CDK1 inhibition assay
Sequence of CDK1 (P06493 whole entry): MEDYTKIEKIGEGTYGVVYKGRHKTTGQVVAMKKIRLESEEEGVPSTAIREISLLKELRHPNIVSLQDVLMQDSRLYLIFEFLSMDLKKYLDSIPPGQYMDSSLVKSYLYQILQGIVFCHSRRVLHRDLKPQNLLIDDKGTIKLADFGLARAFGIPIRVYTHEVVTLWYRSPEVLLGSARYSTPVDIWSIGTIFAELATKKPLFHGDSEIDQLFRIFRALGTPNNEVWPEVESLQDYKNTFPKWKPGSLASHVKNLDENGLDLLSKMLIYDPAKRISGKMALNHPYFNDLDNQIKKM
Sequence of CDK1 (P14635 whole entry partner): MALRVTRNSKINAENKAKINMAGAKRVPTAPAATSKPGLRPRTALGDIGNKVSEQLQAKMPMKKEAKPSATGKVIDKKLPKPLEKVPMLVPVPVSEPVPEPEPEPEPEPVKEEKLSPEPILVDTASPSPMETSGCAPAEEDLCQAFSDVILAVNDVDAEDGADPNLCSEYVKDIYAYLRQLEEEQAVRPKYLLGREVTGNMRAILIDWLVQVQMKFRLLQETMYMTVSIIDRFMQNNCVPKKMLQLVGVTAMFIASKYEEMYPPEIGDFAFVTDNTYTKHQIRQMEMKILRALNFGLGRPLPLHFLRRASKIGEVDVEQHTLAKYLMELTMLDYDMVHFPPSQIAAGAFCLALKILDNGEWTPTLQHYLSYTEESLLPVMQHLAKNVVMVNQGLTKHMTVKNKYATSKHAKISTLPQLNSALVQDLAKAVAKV
Description: as §2

[7] = tested on: human A2780 ovarian tumor cells; remark: listed apart in the source
Description: Compound P (as hydrochloric acid salt) was formulated in 30% PEG300/70% water, and Compound I (as hydrochloric acid salt) was formulated in 20% PEG300/80% D5W (5% dextrose water) and administered by oral gavage twice every day for 10 days (bid×10), while the Cytoxan control which was administered i.p. in saline every two days over a period of 10 days (q2 d×5): […]

CC(C)c1nn(-c2c(Cl)cncc2Cl)c2nc(Cc3ccc(CN4CCCC4)c(O)c3)[nH]c(=O)c12 [Compound I, 1-(3,5-dichloropyridin-4-yl)-6-(3-hydroxy-4-pyrrolidinomethyl-phenyl)methyl-3-isopropyl-pyrazolo[3,4-d]pyrimidin-4-one]
Toxic Mortality (H460 NSCLC; 32 [30] mg/kg po qdx10, N=10): 0 | Max % TGI (d) (H460 NSCLC; 32 [30] mg/kg po qdx10): 30.7 (13) % | LCK ± CI (95%) (Td: 2.6 d) (H460 NSCLC; 63 [59] mg/kg po qdx10): 0.48 ± 0.15 and 0.48 | Toxic Mortality (H460 NSCLC; 63 [59] mg/kg po qdx10, N=10): 0 | Max % TGI (d) (H460 NSCLC; 63 [59] mg/kg po qdx10): 43.1 (13) % | LCK ± CI (95%) (Td: 2.6 d) (H460 NSCLC; 95 [89] mg/kg po qdx10): 0.97 ± 0.25 and 0.97 | Toxic Mortality (H460 NSCLC; 95 [89] mg/kg po qdx10): 2/10 | Max % TGI (d) (H460 NSCLC; 95 [89] mg/kg po qdx10): 57.1 (13) % | IC50 ([1]; COLO 205, Colo205 cells): ~1 µM | IC50 ([1]; HCT-116, HCT116 cells): ~3 µM | IC50 ([1]; RPMI-8226, RPMI8226 cells): > 1 µM | IC50 ([1]; A549 cells): > 1 µM | IC50 ([1]; A2780 cells): ~1 µM | IC50 ([1]; MDA-MB-435 cells): ~0.5 µM | IC50 ([1]; MDA-MB-453 cells): ~1 µM | IC50 ([1]; Raji cells): > 1 µM | IC50 (Colo205): ~0.1 µM | LCK ± CI (95%) (Td: 6.8 d) ([2]; HCT116, 31.6 [29.5] mg/kg po qdx10): 0.21 ± 0.08 and 0.21 | Max % TGI (d) ([2]; HCT116, 31.6 [29.5] mg/kg po qdx10, day 32): 32.7 (32) % | LCK ± CI (95%) (Td: 6.8 d) ([2]; HCT116, 63.3 [59.1] mg/kg po qdx10): 0.51 ± 0.17 and 0.51 | Max % BW Loss (d) ([2]; HCT116, 63.3 [59.1] mg/kg po qdx10, day 16): 3.2 (16) % | Max % TGI (d) ([2]; HCT116, 63.3 [59.1] mg/kg po qdx10, day 32): 58.5 (32) % | LCK ± CI (95%) (Td: 6.8 d) ([2]; HCT116, 95 [89] mg/kg po qdx10): 0.60 ± 0.17 and 0.60 | Toxic Mortality ([2]; HCT116, 95 [89] mg/kg po qdx10): 1/10 | Max % TGI (d) ([2]; HCT116, 95 [89] mg/kg po qdx10, day 20): 68.4 (20) % | Max % BW Loss (d) ([2]; mouse, in vivo, po): 10.2 (16) % | IC50 ([3]; COLO 205, Colo205 cells): ~0.1 µM | IC50 ([3]; HCT-116, HCT116 cells): ~0.1 µM | IC50 ([3]; RPMI-8226, RPMI8226 cells): ~0.1 µM | IC50 ([3]; A2780 cells): ~0.1 µM | IC50 ([3]; MDA-MB-468 cells): ~0.1 µM | IC50 ([3]; Sk-mel-28 cells): ~0.1 µM | solubility [4]: ~390 µM (≈ 200 µg/mL) | permeability in a PAMPA assay [5]: about 70% | IC50 (CDK6): 0.01 to 0.05 µM | LCK ± CI (95%) (Td: 1.7 d) ([6]; 32 [30] mg/kg po qdx10): 0.44 ± 0.24 and 0.44 | Toxic Mortality ([6]; 32 [30] mg/kg po qdx10, N=10): 0 | Max % TGI (d) ([6]; 32 [30] mg/kg po qdx10, day 11): 52.2 (11) % | LCK ± CI (95%) (Td: 1.7 d) ([6]; 63 [59] mg/kg po qdx10): 0.93 ± 0.39 and 0.93 | Toxic Mortality ([6]; 63 [59] mg/kg po qdx10, N=10): 0 | Max % TGI (d) ([6]; 63 [59] mg/kg po qdx10, day 11): 67.3 (11) % | LCK ± CI (95%) (Td: 1.7 d) ([6]; 95 [89] mg/kg po qdx7): 2.16 ± 0.44 and 2.16 | Toxic Mortality ([6]; 95 [89] mg/kg po qdx7): 1/10 | Max % TGI (d) ([6]; 95 [89] mg/kg po qdx7, day 11): 86.2 (11) % | IC50 (CDK1): 0.01 to 0.05 µM | Toxic Mortality ([7]; 15 [14] mg/kg po bidx10, N=10): 0 | Max % TGI (d) ([7]; 15 [14] mg/kg po bidx10, day 10): 47 (10) % | Max % BW Loss (d) ([7]; 15 [14 free base] mg/kg po bidx10, HCl salt, day 6): 0 (6) % | LCK ± CI (95%) (Td: 2.1 d) ([7]; 32 [30] mg/kg po bidx10): 1.72 ± 0.89 and 1.72 | Toxic Mortality ([7]; 32 [30] mg/kg po bidx10, N=10): 0 | Max % TGI (d) ([7]; 32 [30] mg/kg po bidx10, day 13): 81 (13) % | Max % BW Loss (d) ([7]; 32 [30] mg/kg po bidx10, day 15): 4.8 (15) % | LCK ± CI (95%) (Td: 2.1 d) ([7]; 48 [45] mg/kg po bidx10): 3.38 ± 0.81 and 3.38 | Cure ([7]; 48 [45] mg/kg po bidx10, N=10): 3 | Toxic Mortality ([7]; 48 [45] mg/kg po bidx10, N=10): 0 | Max % TGI (d) ([7]; 48 [45] mg/kg po bidx10, day 13): 97 (13) % | Max % BW Loss (d) ([7]; 48 [45] mg/kg po bidx10, day 15): 15.9 (15) % | CR ([7]; 48 [45] mg/kg po bidx10, mice with complete regression, N=10): 1 | PR ([7]; 48 [45] mg/kg po bidx10, mice with partial regression, N=10): 5
